# PubChem BioAssay AID1919015 (Molecular Pharmacology Branch, DTP, NCI, 2023)
# pIC50: −log10 of the molar value. Several values for one entry are separate records, joined by “and”; a condition that tells them apart may be missing. Identical values can stand only once.
# System: OVCAR-5 complex spheroids with HUVEC/MSC, viability, % test/control
# Test: Anticancer human tumor OVCAR-5 cell line growth inhibition [AhR];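 also: spheroids exposed to compounds for 7 days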;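 as to viability, T/C: 100% = DMSO vehicle control wells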
# Conditions: for viability, T/C: stronger effect = lower value
# Procedure, shortened: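 Agents were dosed in half-log steps down from roughly clinical Cmax, or from 10 microM where Cmax was unknown, alone and with AhR antagonists. Read-out: percent test/control growth of tumor spheroids containing HUVEC and MSC stromal cells.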
# [1] = curve of first compound, second compound 0.1 µM
# [2] = curve of first compound, second compound 0.316 µM
# [3] = curve of first compound, second compound 1 µM
# [4] = curve of first compound, second compound 3.16 µM
# [5] = curve of first compound, second compound 10 µM
# [6] = second compound 0.1 µM, first compound 0.0316 µM
# [7] = second compound 0.1 µM, first compound 0.1 µM
# [8] = second compound 0.1 µM, first compound 0.316 µM
# [9] = second compound 0.1 µM, first compound 1 µM
# [10] = second compound 0.1 µM, first compound 3.16 µM
# [11] = second compound 0.1 µM, first compound 10 µM
# [12] = second compound 0.316 µM, first compound 0.0316 µM
# [13] = second compound 0.316 µM, first compound 0.1 µM
# [14] = second compound 0.316 µM, first compound 0.316 µM
# [15] = second compound 0.316 µM, first compound 1 µM
# [16] = second compound 0.316 µM, first compound 3.16 µM
# [17] = second compound 0.316 µM, first compound 10 µM
# [18] = second compound 1 µM, first compound 0.0316 µM
# [19] = second compound 1 µM, first compound 0.1 µM
# [20] = second compound 1 µM, first compound 0.316 µM
# [21] = second compound 1 µM, first compound 1 µM
# [22] = second compound 1 µM, first compound 3.16 µM
# [23] = second compound 1 µM, first compound 10 µM
# [24] = second compound 3.16 µM, first compound 0.0316 µM
# [25] = second compound 3.16 µM, first compound 0.1 µM
# [26] = second compound 3.16 µM, first compound 0.316 µM
# [27] = second compound 3.16 µM, first compound 1 µM
# [28] = second compound 3.16 µM, first compound 3.16 µM
# [29] = second compound 3.16 µM, first compound 10 µM
# [30] = second compound 10 µM, first compound 0.0316 µM
# [31] = second compound 10 µM, first compound 0.1 µM
# [32] = second compound 10 µM, first compound 0.316 µM
# [33] = second compound 10 µM, first compound 1 µM
# [34] = second compound 10 µM, first compound 3.16 µM
# [35] = second compound 10 µM, first compound 10 µM
# [36] = second compound 0.1 µM, first compound 0.000949 µM
# [37] = second compound 0.1 µM, first compound 0.003 µM
# [38] = second compound 0.1 µM, first compound 0.00949 µM
# [39] = second compound 0.1 µM, first compound 0.03 µM
# [40] = second compound 0.1 µM, first compound 0.0949 µM
# [41] = second compound 0.1 µM, first compound 0.3 µM
# [42] = second compound 0.316 µM, first compound 0.000949 µM
# [43] = second compound 0.316 µM, first compound 0.003 µM
# [44] = second compound 0.316 µM, first compound 0.00949 µM
# [45] = second compound 0.316 µM, first compound 0.03 µM
# [46] = second compound 0.316 µM, first compound 0.0949 µM
# [47] = second compound 0.316 µM, first compound 0.3 µM
# [48] = second compound 1 µM, first compound 0.000949 µM
# [49] = second compound 1 µM, first compound 0.003 µM
# [50] = second compound 1 µM, first compound 0.00949 µM
# [51] = second compound 1 µM, first compound 0.03 µM
# [52] = second compound 1 µM, first compound 0.0949 µM
# [53] = second compound 1 µM, first compound 0.3 µM
# [54] = second compound 3.16 µM, first compound 0.000949 µM
# [55] = second compound 3.16 µM, first compound 0.003 µM
# [56] = second compound 3.16 µM, first compound 0.00949 µM
# [57] = second compound 3.16 µM, first compound 0.03 µM
# [58] = second compound 3.16 µM, first compound 0.0949 µM
# [59] = second compound 3.16 µM, first compound 0.3 µM
# [60] = second compound 10 µM, first compound 0.000949 µM
# [61] = second compound 10 µM, first compound 0.003 µM
# [62] = second compound 10 µM, first compound 0.00949 µM
# [63] = second compound 10 µM, first compound 0.03 µM
# [64] = second compound 10 µM, first compound 0.0949 µM
# [65] = second compound 10 µM, first compound 0.3 µM
smiles,measurement,setting,value
COc1cc(Nc2ncc3c(n2)-c2ccc(Cl)cc2C(c2c(F)cccc2OC)=NC3)ccc1C(=O)O + Cc1cncc(-c2nc(NCCc3c[nH]c4ccccc34)c3ncn(C(C)C)c3n2)c1,pIC50,[1],5.58
same,pIC50,[2],5.52
same,pIC50,[3],5.56
same,pIC50,[4],6.06
same,pIC50,[5],> 7.50
same,"viability, T/C",[6],88.1%
same,"viability, T/C",[7],83.6%
same,"viability, T/C",[8],63.6%
same,"viability, T/C",[9],58%
same,"viability, T/C",[10],49.2%
same,"viability, T/C",[11],45.6%
same,"viability, T/C",[12],87.3%
same,"viability, T/C",[13],80.9%
same,"viability, T/C",[14],63.3%
same,"viability, T/C",[15],59.9%
same,"viability, T/C",[16],50.2%
same,"viability, T/C",[17],42.5%
same,"viability, T/C",[18],85.5%
same,"viability, T/C",[19],79%
same,"viability, T/C",[20],60.5%
same,"viability, T/C",[21],59.5%
same,"viability, T/C",[22],48.3%
same,"viability, T/C",[23],44.1%
same,"viability, T/C",[24],69.8%
same,"viability, T/C",[25],68.6%
same,"viability, T/C",[26],56.7%
same,"viability, T/C",[27],49.8%
same,"viability, T/C",[28],46.9%
same,"viability, T/C",[29],44%
same,"viability, T/C",[30],9.88%
same,"viability, T/C",[31],9.9%
same,"viability, T/C",[32],8.88%
same,"viability, T/C",[33],9.21%
same,"viability, T/C",[34],8.92%
same,"viability, T/C",[35],12.2%
CC(C)CC(NC(=O)C(Cc1ccccc1)NC(=O)c1cnccn1)B(O)O (configuration not stated) + Cc1ccccc1N=Nc1ccc(NC(=O)c2ccnn2C)c(C)c1,pIC50,[1],7.31
same,pIC50,[2],7.32
same,pIC50,[3],7.30
same,pIC50,[4],7.32
same,pIC50,[5],7.26
same,"viability, T/C",[36],101%
same,"viability, T/C",[37],105%
same,"viability, T/C",[38],96.9%
same,"viability, T/C",[39],69%
same,"viability, T/C",[40],25%
same,"viability, T/C",[41],19.3%
same,"viability, T/C",[42],104%
same,"viability, T/C",[43],108%
same,"viability, T/C",[44],98.7%
same,"viability, T/C",[45],67.1%
same,"viability, T/C",[46],25.7%
same,"viability, T/C",[47],17.6%
same,"viability, T/C",[48],108%
same,"viability, T/C",[49],112%
same,"viability, T/C",[50],101%
same,"viability, T/C",[51],69.4%
same,"viability, T/C",[52],25.5%
same,"viability, T/C",[53],19.6%
same,"viability, T/C",[54],111%
same,"viability, T/C",[55],112%
same,"viability, T/C",[56],105%
same,"viability, T/C",[57],66.1%
same,"viability, T/C",[58],26.9%
same,"viability, T/C",[59],21.5%
same,"viability, T/C",[60],98.9%
same,"viability, T/C",[61],105%
same,"viability, T/C",[62],93.6%
same,"viability, T/C",[63],73.2%
same,"viability, T/C",[64],29.3%
same,"viability, T/C",[65],23.5%
CCc1c2c(nc3ccc(O)cc13)-c1cc3c(c(=O)n1C2)COC(=O)[C@]3(O)CC + Cc1ccccc1N=Nc1ccc(NC(=O)c2ccnn2C)c(C)c1,pIC50,[1],8.16
same,pIC50,[2],8.09
same,pIC50,[3],8.03
same,pIC50,[4],8.02
same,pIC50,[5],7.98
same,"viability, T/C",[36],85.7%
same,"viability, T/C",[37],64.3%
same,"viability, T/C",[38],37.1%
same,"viability, T/C",[39],36.9%
same,"viability, T/C",[40],22.5%
same,"viability, T/C",[41],7.67%
same,"viability, T/C",[42],87.4%
same,"viability, T/C",[43],70.3%
same,"viability, T/C",[44],39.2%
same,"viability, T/C",[45],37%
same,"viability, T/C",[46],18.7%
same,"viability, T/C",[47],6.8%
same,"viability, T/C",[48],91.3%
same,"viability, T/C",[49],73.4%
same,"viability, T/C",[50],40.8%
same,"viability, T/C",[51],38.3%
same,"viability, T/C",[52],20.9%
same,"viability, T/C",[53],7.02%
same,"viability, T/C",[54],95.9%
same,"viability, T/C",[55],70.7%
same,"viability, T/C",[56],45.4%
same,"viability, T/C",[57],38.1%
same,"viability, T/C",[58],18.4%
same,"viability, T/C",[59],7.44%
same,"viability, T/C",[60],89.5%
same,"viability, T/C",[61],65.9%
same,"viability, T/C",[62],45.9%
same,"viability, T/C",[63],42.1%
same,"viability, T/C",[64],21.5%
same,"viability, T/C",[65],8.22%
CCN(c1cc(-c2ccc(CN3CCOCC3)cc2)cc(C(=O)NCc2c(C)cc(C)[nH]c2=O)c1C)C1CCOCC1 + CC(CO)NC(=O)c1cc(-c2ccc(Cl)cc2)nn(-c2cnn(C)c2)c1=O,pIC50,[1],< 5.52
same,pIC50,[2],< 5.52
same,pIC50,[3],< 5.52
same,pIC50,[4],< 5.52
same,pIC50,[5],< 5.52
same,"viability, T/C",[38],114%
same,"viability, T/C",[39],111%
same,"viability, T/C",[40],111%
same,"viability, T/C",[41],110%
same,"viability, T/C","second compound 0.1 µM, first compound 0.949 µM",106%
same,"viability, T/C","second compound 0.1 µM, first compound 3 µM",109%
same,"viability, T/C",[44],113%
same,"viability, T/C",[45],117%
same,"viability, T/C",[46],114%
same,"viability, T/C",[47],107%
same,"viability, T/C","second compound 0.316 µM, first compound 0.949 µM",111%
same,"viability, T/C","second compound 0.316 µM, first compound 3 µM",110%
same,"viability, T/C",[50],116%
same,"viability, T/C",[51],118%
same,"viability, T/C",[52],119%
same,"viability, T/C",[53],115%
same,"viability, T/C","second compound 1 µM, first compound 0.949 µM",113%
same,"viability, T/C","second compound 1 µM, first compound 3 µM",117%
same,"viability, T/C",[56],108%
same,"viability, T/C",[57],113%
same,"viability, T/C",[58],107%
same,"viability, T/C",[59],98.8%
same,"viability, T/C","second compound 3.16 µM, first compound 0.949 µM",91.8%
same,"viability, T/C","second compound 3.16 µM, first compound 3 µM",97.8%
same,"viability, T/C",[62],102%
same,"viability, T/C",[63],106%
same,"viability, T/C",[64],99%
same,"viability, T/C",[65],97.7%
same,"viability, T/C","second compound 10 µM, first compound 0.949 µM",98.1%
same,"viability, T/C","second compound 10 µM, first compound 3 µM",99.9%
CC(C)c1c(-c2ccccc2)nc2c(C#N)c[nH]n2c1=O + Cc1cncc(-c2nc(NCCc3c[nH]c4ccccc34)c3ncn(C(C)C)c3n2)c1,pIC50,[1],< 5.00
same,pIC50,[2],< 5.00
same,pIC50,[3],< 5.00
same,pIC50,[4],< 5.00
same,pIC50,[5],> 7.50
same,"viability, T/C",[6],100%
same,"viability, T/C",[7],99.5%
same,"viability, T/C",[8],100%
same,"viability, T/C",[9],100%
same,"viability, T/C",[10],96.4%
same,"viability, T/C",[11],106%
same,"viability, T/C",[12],101%
same,"viability, T/C",[13],103%
same,"viability, T/C",[14],98.5%
same,"viability, T/C",[15],102%
same,"viability, T/C",[16],95.2%
same,"viability, T/C",[17],106%
same,"viability, T/C",[18],96.8%
same,"viability, T/C",[19],99.1%
same,"viability, T/C",[20],100%
same,"viability, T/C",[21],94.1%
same,"viability, T/C",[22],94.8%
same,"viability, T/C",[23],103%
same,"viability, T/C",[24],81.5%
same,"viability, T/C",[25],84.1%
same,"viability, T/C",[26],86.1%
same,"viability, T/C",[27],83.6%
same,"viability, T/C",[28],90.1%
same,"viability, T/C",[29],88.7%
same,"viability, T/C",[30],14.2%
same,"viability, T/C",[31],14.2%
same,"viability, T/C",[32],17.8%
same,"viability, T/C",[33],16.3%
same,"viability, T/C",[34],16%
same,"viability, T/C",[35],25.1%
O=C(c1cc(Cc2n[nH]c(=O)c3ccccc23)ccc1F)N1CCN(C(=O)C2CC2)CC1,"viability, T/C",compound 0.0316 µM,98.3% and 103% and 100%
same,"viability, T/C",compound 0.1 µM,97.6% and 99% and 96.8%
same,"viability, T/C",compound 0.316 µM,92.4% and 97.2% and 96.1%
same,"viability, T/C",compound 1 µM,93% and 93.2% and 98.6%
same,"viability, T/C",compound 3.16 µM,90.9% and 91% and 92.9%
same,"viability, T/C",compound 10 µM,83.3% and 83.5% and 84.2%
same,pIC50,curve of compound,< 5.00
